Publication PMC8231113, “Protein Secondary Structure Affects Glycan Clustering in Native Mass Spectrometry” (Life, 2021)

How the values were obtained:
Format in all cases: binding
[1] = target: T1, ubiquitin from bovine erythrocytes (Ubq) (Bos taurus, UniProt P0CG53); experiment: Native MS glycan clustering to reference protein Ubq; conditions: on Ubq
T1 construct: ubiquitin from bovine erythrocytes (Ubq, CAS number 75986-22-4); purchased Sigma-Aldrich (Merck, Germany); host or cells: bovine erythrocytes
Method: (§1) Prior to MS analysis, purified P dimers were buffer exchanged to 150 mM ammonium acetate (Sigma-Aldrich, reagent grade ≥98%) at pH 7 via centrifugal filter units at 12,000× g at 4 °C (Vivaspin 500, MWCO 10000, Sartorius). Glycans for native MS analysis were mixed with 1 µM (per monomer) purified GII.4 Saga P dimer and 3 µM of the reference proteins at indicated concentrations. Native mass spectra were measured at room temperature in positive ion mode on a high mass modified LCT Premier mass spectrometer (Waters/Micromass, UK and MS Vision, the Netherlands) with a nano-ESI source. In house-made gold-coated electrospray capillaries were used for direct-sample infusion without any accessory chromatographic separation. The voltages and pressures were optimized for non-covalent protein complexes. The gas pressure used in the source hexapole was set between 6.5 and 6.8 × 10^−2 mbar argon optimized for minimal complex dissociation and the backing pressure of the source roughing pump was set between 7.0 and 8.5 mbar. Spectra were recorded with applied voltages for the capillary and cone of 1.20 kV and 240 V, respectively. Note that charge state distributions for P dimers were sometimes slightly shifted as was the degree of glycan clustering per charge state. These changes were highly variable and not quantifiable.
(§2) For calibration of the raw data, a 25 mg/mL cesium iodide spectrum from the same day was used. MassLynx V4.1 (Waters, Manchester, UK) was used to assign peak series to protein species and to determine the mass after minimal smoothing. Furthermore, OriginPro 2016 SR2 (OriginLab, Northampton, MA, USA) was used for spectral deconvolution and curve fitting. Correction for nonspecific protein-ligand clustering was performed as described. Corrected peak areas were averaged and normalized to the free-protein signal. Data were based on at least three independent measurements. Python code Panda and Numpy package were used to calculate the specific binding of P dimers according to the glycan clustering ratio obtained from the selected reference protein candidates. Seaborn and matplotlib.pyplot package were imported into a python script to plot the results. The module of sklearn.linear model was applied for linear regression. The matplotlib and heatmap package were used to plot the heatmap.
(§3) Theoretically, the KD is calculated by measuring the concentration of the three components (Pfree, Lfree, PL) in solution. Usually, these values are only indirectly accessible because they require ligand titration up to binding saturation. However, native MS allows for the directly measurement of Pfree and PL, from which Lfree can be calculated using the input concentrations. In the present work, the non-covalent interaction was measured in the gas phase assuming identical ESI and detection efficiency for free and glycan-associated proteins, both for the analyte and the reference protein. […] For P dimers, the equations reflect glycan binding to the individual monomers assuming that binding sites on each monomer are equal and independent.
(§4) Using R described in Equation (3), the KD calculation can be re-written into Equation (4) with the known initial concentration of glycan ligand [L0] and protein [P0], adapted from Sun et al.:(3) R=PLequil∕Pequil=∑nA(PL^n+)∕n∕∑nA(P^n+)∕n (4) KD =L0−RP0/1+R/R
(§5) For the carbohydrate-binding experiments, it was essential to keep the initial protein concentrations and pH value constant during the analysis of the protein-carbohydrate solutions. While acidification occurs in any ESI droplet, the remaining solution in the capillary changes pH over time. Therefore, accumulated spectra were obtained within 10 min after the voltages were applied to minimize the influence of pH changes during the measurements. […]

[2] = target: T2, cytochrome c from equine heart (cyt c) (Equus caballus, UniProt P00004); experiment: Native MS glycan clustering to reference protein cyt c; conditions: on Cyt c
T2 construct: cytochrome c from equine heart (cyt c, CAS number 9007-43-6); purchased Sigma-Aldrich (Merck, Germany); host or cells: equine heart
T2 sequence (P00004 whole entry): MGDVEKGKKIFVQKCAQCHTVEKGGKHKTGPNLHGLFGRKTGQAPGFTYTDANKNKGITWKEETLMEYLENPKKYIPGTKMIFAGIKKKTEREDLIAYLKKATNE
Method: as §1, §2, §3, §4, §5

[3] = target: T3, myoglobin from equine heart (Myo) (Equus caballus, UniProt P68082); experiment: Native MS glycan clustering to reference protein Myo; conditions: on Myo
T3 construct: myoglobin from equine heart (Myo, CAS number 100684-32-0); purchased Sigma-Aldrich (Merck, Germany); host or cells: equine heart
T3 sequence (P68082 whole entry): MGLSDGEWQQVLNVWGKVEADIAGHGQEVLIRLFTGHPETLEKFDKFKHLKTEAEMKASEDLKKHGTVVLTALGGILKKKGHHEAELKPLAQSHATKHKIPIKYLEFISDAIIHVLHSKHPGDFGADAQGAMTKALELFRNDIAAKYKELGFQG
Method: as §1, §2, §3, §4, §5

[4] = target: T4, carbonic anhydrase isozyme II from bovine erythrocytes (CA) (Bos taurus, UniProt P00921); experiment: Native MS glycan clustering to reference protein CA; conditions: on CA
T4 construct: carbonic anhydrase isozyme II from bovine erythrocytes (CA, CAS number 9001-03-0); purchased Sigma-Aldrich (Merck, Germany); host or cells: bovine erythrocytes
T4 sequence (P00921 whole entry): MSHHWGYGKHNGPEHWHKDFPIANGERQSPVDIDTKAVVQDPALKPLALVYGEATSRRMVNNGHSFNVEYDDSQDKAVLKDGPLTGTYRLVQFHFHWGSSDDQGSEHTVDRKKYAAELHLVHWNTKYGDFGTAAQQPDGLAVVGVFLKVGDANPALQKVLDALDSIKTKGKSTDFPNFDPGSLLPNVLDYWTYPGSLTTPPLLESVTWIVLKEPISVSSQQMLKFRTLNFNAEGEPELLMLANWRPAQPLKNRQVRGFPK
Method: as §1, §2, §3, §4, §5

[5] = target: T5, human apo-transferrin (apo-TFF) (Homo sapiens, UniProt P02787); experiment: Native MS glycan clustering to reference protein apo-TFF; conditions: on apo-TFF
T5 construct: purchased Sigma-Aldrich (Merck, Germany)
T5 sequence (P02787 20-698): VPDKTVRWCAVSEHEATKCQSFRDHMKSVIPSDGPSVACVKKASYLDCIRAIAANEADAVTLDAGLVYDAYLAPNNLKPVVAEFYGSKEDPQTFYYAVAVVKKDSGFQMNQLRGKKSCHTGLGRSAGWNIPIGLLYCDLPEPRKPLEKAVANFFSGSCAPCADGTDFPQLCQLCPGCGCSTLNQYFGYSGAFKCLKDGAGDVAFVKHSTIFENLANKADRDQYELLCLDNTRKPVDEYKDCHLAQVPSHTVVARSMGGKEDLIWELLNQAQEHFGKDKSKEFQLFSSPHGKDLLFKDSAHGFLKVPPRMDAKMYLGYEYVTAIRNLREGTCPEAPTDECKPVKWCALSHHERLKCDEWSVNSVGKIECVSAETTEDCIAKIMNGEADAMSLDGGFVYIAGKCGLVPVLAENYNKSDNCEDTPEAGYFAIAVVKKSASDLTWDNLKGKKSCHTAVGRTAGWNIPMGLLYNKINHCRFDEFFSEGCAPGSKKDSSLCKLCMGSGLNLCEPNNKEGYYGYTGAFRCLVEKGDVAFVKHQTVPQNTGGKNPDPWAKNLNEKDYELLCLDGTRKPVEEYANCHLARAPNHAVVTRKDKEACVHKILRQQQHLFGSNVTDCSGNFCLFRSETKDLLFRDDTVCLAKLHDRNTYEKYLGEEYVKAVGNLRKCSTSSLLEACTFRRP
Method: as §1, §2, §3, §4, §5

[6] = target: T6, alcohol dehydrogenase from Saccharomyces cerevisiae (ADH) (Saccharomyces cerevisiae, UniProt P00330); experiment: Native MS glycan clustering to reference protein ADH; conditions: on ADH
T6 construct: alcohol dehydrogenase from Saccharomyces cerevisiae (ADH, CAS number 9031-72-5); purchased Sigma-Aldrich (Merck, Germany); host or cells: Saccharomyces cerevisiae
T6 sequence (P00330 2-348 limits assumed): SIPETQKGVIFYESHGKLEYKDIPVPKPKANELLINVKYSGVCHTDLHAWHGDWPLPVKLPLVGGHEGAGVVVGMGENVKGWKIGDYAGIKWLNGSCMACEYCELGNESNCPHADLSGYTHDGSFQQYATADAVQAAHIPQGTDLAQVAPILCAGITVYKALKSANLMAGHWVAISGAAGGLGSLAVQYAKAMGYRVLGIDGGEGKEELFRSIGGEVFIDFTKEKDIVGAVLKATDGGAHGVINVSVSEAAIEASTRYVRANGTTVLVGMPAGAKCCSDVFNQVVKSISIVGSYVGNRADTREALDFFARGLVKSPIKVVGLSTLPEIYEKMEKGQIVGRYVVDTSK
Method: as §1, §2, §3, §4, §5

Row | Structure (SMILES) | Glycan-Clustering Ratio R ([1]; 100 µM glycan) | Glycan-Clustering Ratio R ([1]; 200 µM glycan) | Glycan-Clustering Ratio R ([1]; 300 µM glycan) | Glycan-Clustering Ratio R ([1]; 400 µM glycan) | Glycan-Clustering Ratio R ([1]; 500 µM glycan) | Glycan-Clustering Ratio R ([2]; 100 µM glycan) | Glycan-Clustering Ratio R ([2]; 200 µM glycan) | Glycan-Clustering Ratio R ([2]; 300 µM glycan) | Glycan-Clustering Ratio R ([2]; 400 µM glycan) | Glycan-Clustering Ratio R ([2]; 500 µM glycan) | Glycan-Clustering Ratio R ([3]; 100 µM glycan) | Glycan-Clustering Ratio R ([3]; 200 µM glycan) | Glycan-Clustering Ratio R ([3]; 300 µM glycan) | Glycan-Clustering Ratio R ([3]; 400 µM glycan) | Glycan-Clustering Ratio R ([3]; 500 µM glycan) | Glycan-Clustering Ratio R ([4]; 100 µM glycan) | Glycan-Clustering Ratio R ([4]; 200 µM glycan) | Glycan-Clustering Ratio R ([4]; 300 µM glycan) | Glycan-Clustering Ratio R ([4]; 400 µM glycan) | Glycan-Clustering Ratio R ([4]; 500 µM glycan) | further results
1 | CC(=O)N[C@H]1[C@H](O[C@H]2[C@@H](O)[C@@H](CO)O[C@H](O[C@@H]3[C@H](O)[C@@H](O)[C@H](O[C@H]4[C@H](O)[C@@H](O)C(O)O[C@@H]4CO)O[C@@H]3CO)[C@@H]2O)O[C@H](CO)[C@H](O)[C@@H]1O (stereo partly drawn) [Gb4, GalNAc β1-3 Galα1-4Galβ1-4Glc] | 0.03±0.01 | 0.04±0.01 | 0.12±0.02 | 0.21±0.20 | 0.09 ± 0.03 | 0.10±0.01 | 0.15±0.00 | 0.19±0.03 | 0.29±0.04 | 0.45 ± 0.02 | 0.14±0.02 | 0.17±0.03 | 0.20±0.03 | 0.30±0.01 | 0.37 ± 0.06 | 0.21±0.01 | 0.32±0.07 | 0.50±0.00 | 0.60±0.05 | 0.75 ± 0.03 | Glycan-Clustering Ratio R ([5]; 100 µM glycan): 0.36±0.05; Glycan-Clustering Ratio R ([5]; 200 µM glycan): 0.57±0.06; Glycan-Clustering Ratio R ([5]; 300 µM glycan): 0.63±0.02; Glycan-Clustering Ratio R ([5]; 400 µM glycan): 0.69±0.02; Glycan-Clustering Ratio R ([5]; 500 µM glycan): 0.80 ± 0.05; Glycan-Clustering Ratio R ([6]; 100 µM glycan): 0.34±0.04; Glycan-Clustering Ratio R ([6]; 200 µM glycan): 0.66±0.03; Glycan-Clustering Ratio R ([6]; 300 µM glycan): 0.81±0.11; Glycan-Clustering Ratio R ([6]; 400 µM glycan): 1.03±0.08; Glycan-Clustering Ratio R ([6]; 500 µM glycan): 1.26 ± 0.03
2 | CC(=O)N[C@H]1[C@@H](O[C@H]2[C@@H](O)[C@@H](CO)O[C@@H](O[C@H]3[C@H](O)[C@@H](CO)OC(O)[C@@H]3NC(C)=O)[C@@H]2O[C@@H]2O[C@@H](C)[C@@H](O)[C@@H](O)[C@@H]2O)O[C@H](CO)[C@H](O)[C@@H]1O (stereo partly drawn) [HBGA A, GalNAcα1-3(Fucα-2)Galβ1-3GlcNAc] | 0.06±0.03 | 0.04±0.01 | 0.13±0.01 | 0.18±0.01 | 0.10 ± 0.05 | 0.18±0.03 | 0.16± 0.02 | 0.19± 0.03 | 0.27± 0.02 | 0.41 ± 0.09 | 0.13±0.03 | 0.16±0.03 | 0.22±0.03 | 0.29±0.04 | 0.34 ± 0.03 | 0.20±0.05 | 0.37±0.01 | 0.42±0.02 | 0.57±0.02 | 0.74 ± 0.07 | Glycan-Clustering Ratio R ([5]; 100 µM glycan): 0.39±0.02; Glycan-Clustering Ratio R ([5]; 200 µM glycan): 0.57±0.05; Glycan-Clustering Ratio R ([5]; 300 µM glycan): 0.65±0.02; Glycan-Clustering Ratio R ([5]; 400 µM glycan): 0.71±0.03; Glycan-Clustering Ratio R ([5]; 500 µM glycan): 0.79 ± 0.03; Glycan-Clustering Ratio R ([6]; 100 µM glycan): 0.39± 0.02; Glycan-Clustering Ratio R ([6]; 200 µM glycan): 0.65± 0.02; Glycan-Clustering Ratio R ([6]; 300 µM glycan): 0.88± 0.10; Glycan-Clustering Ratio R ([6]; 400 µM glycan): 0.98± 0.05; Glycan-Clustering Ratio R ([6]; 500 µM glycan): 1.32 ± 0.10
3 | CC(=O)N[C@H]1C(O)O[C@H](CO)[C@@H](O)[C@@H]1O[C@@H]1O[C@H](CO)[C@H](O)[C@H](O[C@H]2O[C@H](CO)[C@H](O)[C@H](O)[C@H]2O)[C@H]1O[C@@H]1O[C@@H](C)[C@@H](O)[C@@H](O)[C@@H]1O (stereo partly drawn) [HBGA B, Galα1-3(Fucα1-2)Galβ1-3GlcNAc] | 0.04±0.01 | 0.04±0.01 | 0.10±0.03 | 0.18±0.01 | 0.25 ± 0.00 | 0.14±0.01 | 0.15±0.01 | 0.19±0.03 | 0.29±0.02 | 0.35 ± 0.03 | 0.14±0.03 | 0.18±0.02 | 0.19±0.06 | 0.31±0.04 | 0.36 ± 0.05 | 0.22±0.03 | 0.32±0.05 | 0.40±0.04 | 0.60±0.05 | 0.75 ± 0.07 | Glycan-Clustering Ratio R ([5]; 100 µM glycan): 0.37±0.03; Glycan-Clustering Ratio R ([5]; 200 µM glycan): 0.56±0.05; Glycan-Clustering Ratio R ([5]; 300 µM glycan): 0.62±0.03; Glycan-Clustering Ratio R ([5]; 400 µM glycan): 0.74±0.01; Glycan-Clustering Ratio R ([5]; 500 µM glycan): 0.82 ± 0.03; Glycan-Clustering Ratio R ([6]; 100 µM glycan): 0.42±0.03; Glycan-Clustering Ratio R ([6]; 200 µM glycan): 0.64±0.06; Glycan-Clustering Ratio R ([6]; 300 µM glycan): 0.97±0.08; Glycan-Clustering Ratio R ([6]; 400 µM glycan): 1.02±0.08; Glycan-Clustering Ratio R ([6]; 500 µM glycan): 1.45 ± 0.11
